Results: patent US6348445B1, “Biologically active peptides with reduced toxicity in animals and a method for preparing same” (priority 1992, dated 2002)

Tests used:
[1] = maximal tolerated dose, single intravenous administration of Compound 1324; type: in vivo, mice; conditions: for Number of Survivors on Day 0: 2 or 6.5 hrs post-administration
Experimental: Mice received single intravenous administrations of Compound 1324, the methane sulfonate analogue of Compound 843, and were monitored for survival for at least 4 days. There were no deaths at a dose of less than or equal to 180 mg/kg.
To determine the maximal tolerated dose (MTD) and estimate the lethal dose 50% (LD50) of Compound 1324 sodium when administered intravenously in a single-bolus in mice.
Animals: On arrival and study initiation, three groups Thirty-seven male CD-1 mice (Charles River Lab)had average body weights of 39, 28 and 28 gm, respectively.
Solution Prep: A 120 mg/ml of active Compound 1324 (active moiety corrected for) was made in saline. All concentrations from 5 mg/ml to 80 mg/ml were dilutions of the 120 mg/ml solution with saline. The highest concentration used in the intravenous administration was 20 mg/ml.
Mice were randomly assigned to one of ten groups (4 mice per group, except the highest dose group which only had one mouse). Mice were administered intravenously 10 ml/kg of either 0 (saline), 5, 6, 7, 8, 14, 16, 18, or 20 mg/ml solution for doses of […]. One mouse received 14.1 ml/kg of a 20 mg/ml solution for a dose of 282 mg/kg. Mice were monitored for survival for at least four days post-administration.

[2] = pharmacokinetics, single intravenous dose, plasma bioassay (E. coli zone clearing); type: in vivo, mice; conditions: 140 mg/kg i.v.
Experimental: A pharmacokinetics study of MSI-1324 in mice using a single dose administration was conducted. Thirty-two CD-1 male mice were injected with MSI-1324 sodium with a dose of 140 mg/kg (corrected for peptide content). Terminal blood samples were obtained from 2 to 4 mice at timepoints of 0 (prior to dosing), 5, 15, 30, 60 min, 2, 4, 6, 24, and 48 hours post-dose. Plasma concentrations were estimated by bioassay.
40 animals CD-1®BR mice (Charles River Lab) with a mean body weight of 25.6 gms at study initiation were used.
A 14 mg/mL solution of MSI-1324 was made in saline (0.9% sodium chloride injectable USP, Baxter) corrected for peptide content.
Thirty-six mice were intravenously administered a single bolus of MSI-1324 at a dose of 140 mg/kg corrected for peptide content using an injection volume of 10 mL/kg of the 14 mg/mL solution. Four mice were not injected and supplied pre-dosing blood samples. Terminal blood samples were obtained via cardiac puncture in halothane-anesthetized mice at timepoints of 0 (prior to dosing), 5, 15, 30, 60 min, 2, 4, 6, 24, and 48 hours post-dose. Two to four mice were terminally bled at each timepoint. The blood samples were centrifuged and plasma transferred into separate tubes for bioassay analysis. The bioassay used was antibacterial zone clearing (disk diffusion) on Escherichia coli lawns.

Compound: CCCCCCCC(=O)N[C@@H](CCCNCS(=O)(=O)O)C(=O)N[C@@H](CCCNCS(=O)(=O)O)C(=O)N[C@@H](CC(C)C)C(=O)N[C@@H](CC(C)C)C(=O)N[C@@H](CCCNCS(=O)(=O)O)C(=O)N[C@@H](CCCNCS(=O)(=O)O)C(=O)N[C@@H](CC(C)C)C(=O)N[C@@H](CCCNCS(=O)(=O)O)C(=O)N[C@@H](CCCNCS(=O)(=O)O)C(=O)N[C@@H](CC(C)C)C(N)=O [Compound 1324]
- mice that survived ([1]; 200 mg/kg single intravenous): Three of four
- Number of Survivors on Day 1 ([1]; IV 50 mg/kg, 4 mice): 4
- Number of Survivors on Day 2 ([1]; IV 50 mg/kg, 4 mice): 4
- Number of Survivors on Day 3 ([1]; IV 50 mg/kg, 4 mice): 4
- Number of Survivors on Day 4 ([1]; IV 50 mg/kg, 4 mice): 4
- Number of Survivors on Day 5 ([1]; IV 50 mg/kg, 4 mice): 4
- Number of Survivors on Day 0 ([1]; IV 50 mg/kg, 4 mice): 4
- Number of Survivors on Day 1 ([1]; IV 60 mg/kg, 4 mice): 4
- Number of Survivors on Day 2 ([1]; IV 60 mg/kg, 4 mice): 4
- Number of Survivors on Day 3 ([1]; IV 60 mg/kg, 4 mice): 4
- Number of Survivors on Day 4 ([1]; IV 60 mg/kg, 4 mice): 4
- Number of Survivors on Day 5 ([1]; IV 60 mg/kg, 4 mice): 4
- Number of Survivors on Day 0 ([1]; IV 60 mg/kg, 4 mice): 4
- Number of Survivors on Day 1 ([1]; IV 70 mg/kg, 4 mice): 4
- Number of Survivors on Day 2 ([1]; IV 70 mg/kg, 4 mice): 4
- Number of Survivors on Day 3 ([1]; IV 70 mg/kg, 4 mice): 4
- Number of Survivors on Day 4 ([1]; IV 70 mg/kg, 4 mice): 4
- Number of Survivors on Day 5 ([1]; IV 70 mg/kg, 4 mice): 4
- Number of Survivors on Day 0 ([1]; IV 70 mg/kg, 4 mice): 4
- Number of Survivors on Day 1 ([1]; IV 80 mg/kg, 4 mice): 4
- Number of Survivors on Day 2 ([1]; IV 80 mg/kg, 4 mice): 4
- Number of Survivors on Day 3 ([1]; IV 80 mg/kg, 4 mice): 4
- Number of Survivors on Day 4 ([1]; IV 80 mg/kg, 4 mice): 4
- Number of Survivors on Day 5 ([1]; IV 80 mg/kg, 4 mice): 4
- Number of Survivors on Day 0 ([1]; IV 80 mg/kg, 4 mice): 4
- Number of Survivors on Day 1 ([1]; IV 140 mg/kg, 4 mice): 4
- Number of Survivors on Day 2 ([1]; IV 140 mg/kg, 4 mice): 4
- Number of Survivors on Day 3 ([1]; IV 140 mg/kg, 4 mice): 4
- Number of Survivors on Day 4 ([1]; IV 140 mg/kg, 4 mice): 4
- Number of Survivors on Day 5 ([1]; IV 140 mg/kg, 4 mice): 4
- Number of Survivors on Day 7 ([1]; IV 140 mg/kg, 4 mice): 4
- Number of Survivors on Day 0 ([1]; IV 140 mg/kg, 4 mice): 4
- Number of Survivors on Day 1 ([1]; IV 160 mg/kg, 4 mice): 4
- Number of Survivors on Day 2 ([1]; IV 160 mg/kg, 4 mice): 4
- Number of Survivors on Day 3 ([1]; IV 160 mg/kg, 4 mice): 4
- Number of Survivors on Day 4 ([1]; IV 160 mg/kg, 4 mice): 4
- Number of Survivors on Day 5 ([1]; IV 160 mg/kg, 4 mice): 4
- Number of Survivors on Day 7 ([1]; IV 160 mg/kg, 4 mice): 4
- Number of Survivors on Day 0 ([1]; IV 160 mg/kg, 4 mice): 4
- Number of Survivors on Day 1 ([1]; IV 180 mg/kg, 4 mice): 4
- Number of Survivors on Day 2 ([1]; IV 180 mg/kg, 4 mice): 4
- Number of Survivors on Day 3 ([1]; IV 180 mg/kg, 4 mice): 4
- Number of Survivors on Day 4 ([1]; IV 180 mg/kg, 4 mice): 4
- Number of Survivors on Day 5 ([1]; IV 180 mg/kg, 4 mice): 4
- Number of Survivors on Day 7 ([1]; IV 180 mg/kg, 4 mice): 4
- Number of Survivors on Day 0 ([1]; IV 180 mg/kg, 4 mice): 4
- Number of Survivors on Day 2 ([1]; IV 200 mg/kg, 4 mice): 3
- Number of Survivors on Day 3 ([1]; IV 200 mg/kg, 4 mice): 3
- Number of Survivors on Day 4 ([1]; IV 200 mg/kg, 4 mice): 3
- Number of Survivors on Day 2 ([1]; IV 282 mg/kg, 1 mouse): 0
- Number of Survivors on Day 3 ([1]; IV 282 mg/kg, 1 mouse): 0
- Number of Survivors on Day 4 ([1]; IV 282 mg/kg, 1 mouse): 0
- LD50 ([1]; mouse, in vivo, single intravenous bolus, CD-1 mice): 200 to 282 mg/kg
- peak plasma concentration ([2]; estimated by bioassay): approximately 600 ug/mL
- time of peak concentration post-dose ([2]; first sampling timepoint): 5 min
- plasma concentration at 60 min post-dose ([2]; limit of detection approximately 150 ug/mL, listed as MSI-1324): below detection limits of the assay
- level at 1 h ([2]; male, CD-1, mouse, plasma, iv, limit of detection approximately 150 ug/mL, read-out: plasma concentration at 60 min post-dose): < 150 µg/mL
